According to US10561658B2, “Thieno- and pyrrolopyrimidine analogues as anticancer agents and methods of use thereof” (UNIVERSITY OF MARYLAND, BALTIMORE COUNTY, priority 2015, dated 2020):

Legend:
melanoma tumor = assay: In vivo activity screen, intra-tumor injection; set-up: species or system mice; conditions: intra-tumor injection 0.01 mg/100 mm^3 tumor, 5 days on/2 days off, 21 days
From the text: The asterisk denotes […] when compared to the vehicle only (n=6-10 mice). Melanoma is viewed as resistant to nucleoside analogues, since traditional FDA-approved nucleosides have minimal effects on growth inhibition (100-90% growth percent) and apoptosis (5-10% cell death).

[1] = In vivo systemic (IP) toxicity, body weight
From the text: When dosing was completed, the mice were monitored for 14 days to determine any toxicity. In mice the best indicator of toxicity is weight loss.

JAK2 = JAK2 (Homo sapiens, UniProt O60674); assay: Select Screen kinase profiling; assay type: biochemical
From the text: (§1) The thieno[3,2-d]pyrimidine scaffold has been used extensively in the design of kinase inhibitors.

JAK2 JH1 JH2 V617F = molecular target: T1, JAK2 JH1 JH2 V617F (Homo sapiens, UniProt O60674, V617F); assay: Select Screen kinase profiling; assay type: biochemical
T1 construct: JAK2 JH1 JH2 V617F
T1 sequence (O60674 532-1132 V617F limits assumed): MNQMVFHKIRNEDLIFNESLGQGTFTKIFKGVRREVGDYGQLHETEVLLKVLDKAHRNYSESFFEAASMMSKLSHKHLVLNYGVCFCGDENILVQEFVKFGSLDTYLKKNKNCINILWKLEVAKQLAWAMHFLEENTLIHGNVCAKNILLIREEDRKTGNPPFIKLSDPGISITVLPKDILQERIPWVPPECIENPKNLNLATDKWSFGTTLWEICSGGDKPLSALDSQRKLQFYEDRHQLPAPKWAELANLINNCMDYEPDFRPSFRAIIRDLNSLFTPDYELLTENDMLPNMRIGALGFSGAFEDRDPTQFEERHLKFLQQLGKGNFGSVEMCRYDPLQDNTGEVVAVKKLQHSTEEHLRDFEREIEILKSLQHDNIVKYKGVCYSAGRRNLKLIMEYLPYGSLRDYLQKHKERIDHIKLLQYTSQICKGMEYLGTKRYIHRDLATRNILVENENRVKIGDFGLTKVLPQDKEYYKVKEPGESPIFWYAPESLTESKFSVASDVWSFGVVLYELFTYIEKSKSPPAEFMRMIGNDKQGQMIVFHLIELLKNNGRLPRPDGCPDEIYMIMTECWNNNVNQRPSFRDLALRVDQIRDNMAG
From the text: as §1

JAK2 JHI JH2 = molecular target: T2, JAK2 JHI JH2 (Homo sapiens, UniProt O60674); assay: Select Screen kinase profiling; assay type: biochemical
T2 construct: JAK2 JHI JH2
T2 sequence (O60674 532-1132 limits assumed): as the sequence (O60674 532-1132 V617F limits assumed) above, with F86V counted along it
From the text: as §1

JAK3 = JAK3 (Homo sapiens, UniProt P52333); assay: Select Screen kinase profiling; assay type: biochemical
From the text: as §1

MET (cMet) = MET (cMet) (Homo sapiens, UniProt P08581); assay: Select Screen kinase profiling; assay type: biochemical
From the text: as §1

PIK3C2A = PIK3C2A (Homo sapiens, UniProt O00443); assay: Select Screen kinase profiling; assay type: biochemical
From the text: as §1

PIK3CA/PIK3R1 = PIK3CA/PIK3R1 (Homo sapiens, UniProt P42336); assay: Select Screen kinase profiling; assay type: biochemical
From the text: as §1

PIK3CG = PIK3CG (Homo sapiens, UniProt P48736); assay: Select Screen kinase profiling; assay type: biochemical
PIK3CG, sequence (P48736 whole entry): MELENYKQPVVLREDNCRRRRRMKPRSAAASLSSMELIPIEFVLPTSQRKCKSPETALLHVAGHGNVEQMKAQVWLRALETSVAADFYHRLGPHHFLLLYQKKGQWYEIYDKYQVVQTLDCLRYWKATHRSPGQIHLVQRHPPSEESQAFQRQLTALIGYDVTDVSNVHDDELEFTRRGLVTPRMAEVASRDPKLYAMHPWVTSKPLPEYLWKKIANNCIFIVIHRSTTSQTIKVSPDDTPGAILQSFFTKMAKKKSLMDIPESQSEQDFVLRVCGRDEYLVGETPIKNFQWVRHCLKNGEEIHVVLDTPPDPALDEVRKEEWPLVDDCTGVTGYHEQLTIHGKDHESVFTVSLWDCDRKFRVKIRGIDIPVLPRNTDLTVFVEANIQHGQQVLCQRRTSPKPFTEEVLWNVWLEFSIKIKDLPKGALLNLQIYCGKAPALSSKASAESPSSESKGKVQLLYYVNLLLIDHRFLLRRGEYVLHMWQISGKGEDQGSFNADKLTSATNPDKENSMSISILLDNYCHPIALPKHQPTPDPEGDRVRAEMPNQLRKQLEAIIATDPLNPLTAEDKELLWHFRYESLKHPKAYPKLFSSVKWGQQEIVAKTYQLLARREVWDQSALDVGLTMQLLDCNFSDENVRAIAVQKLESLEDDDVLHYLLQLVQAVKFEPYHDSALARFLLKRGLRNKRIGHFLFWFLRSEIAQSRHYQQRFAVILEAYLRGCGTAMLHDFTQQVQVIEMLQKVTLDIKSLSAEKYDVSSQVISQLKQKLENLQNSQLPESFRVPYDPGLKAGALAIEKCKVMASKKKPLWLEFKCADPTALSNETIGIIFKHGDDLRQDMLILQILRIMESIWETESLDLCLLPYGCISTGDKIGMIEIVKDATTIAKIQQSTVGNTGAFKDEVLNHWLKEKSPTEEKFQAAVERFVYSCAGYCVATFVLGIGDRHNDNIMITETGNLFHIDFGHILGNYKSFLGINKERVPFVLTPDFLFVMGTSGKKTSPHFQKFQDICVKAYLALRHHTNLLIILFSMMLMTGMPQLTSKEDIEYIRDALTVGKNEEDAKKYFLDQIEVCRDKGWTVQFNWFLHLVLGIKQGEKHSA
From the text: as §1

PRKCN (PKD3) = PRKCN (PKD3) (Homo sapiens, UniProt O94806); assay: Select Screen kinase profiling; assay type: biochemical
PRKCN (PKD3), sequence (O94806 whole entry): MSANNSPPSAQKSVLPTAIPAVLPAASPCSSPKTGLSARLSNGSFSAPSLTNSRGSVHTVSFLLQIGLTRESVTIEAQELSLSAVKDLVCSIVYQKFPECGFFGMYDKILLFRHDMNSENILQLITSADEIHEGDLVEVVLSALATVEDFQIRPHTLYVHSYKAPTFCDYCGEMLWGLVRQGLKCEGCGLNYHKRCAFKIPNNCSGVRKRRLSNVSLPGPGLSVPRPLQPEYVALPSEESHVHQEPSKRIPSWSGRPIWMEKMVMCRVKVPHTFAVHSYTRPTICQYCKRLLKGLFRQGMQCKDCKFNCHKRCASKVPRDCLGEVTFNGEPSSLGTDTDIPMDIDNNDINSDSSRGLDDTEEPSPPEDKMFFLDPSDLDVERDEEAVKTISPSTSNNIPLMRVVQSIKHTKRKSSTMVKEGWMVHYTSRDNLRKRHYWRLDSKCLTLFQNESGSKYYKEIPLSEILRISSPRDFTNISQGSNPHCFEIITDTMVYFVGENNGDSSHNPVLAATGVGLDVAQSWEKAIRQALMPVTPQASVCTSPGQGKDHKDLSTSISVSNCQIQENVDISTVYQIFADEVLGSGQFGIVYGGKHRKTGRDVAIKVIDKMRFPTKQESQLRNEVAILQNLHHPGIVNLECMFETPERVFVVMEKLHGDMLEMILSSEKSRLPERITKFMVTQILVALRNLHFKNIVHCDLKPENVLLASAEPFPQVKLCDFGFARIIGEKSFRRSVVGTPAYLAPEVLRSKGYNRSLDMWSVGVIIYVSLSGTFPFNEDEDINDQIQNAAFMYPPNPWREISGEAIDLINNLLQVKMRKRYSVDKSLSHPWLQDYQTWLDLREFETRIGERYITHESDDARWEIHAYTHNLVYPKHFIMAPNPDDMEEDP
From the text: as §1

PRKD1 (PKC mu) = PRKD1 (PKC mu) (Homo sapiens, UniProt Q15139); assay: Select Screen kinase profiling; assay type: biochemical
From the text: as §1

PRKD2 (PKD2) = PRKD2 (PKD2) (Homo sapiens, UniProt Q9BZL6); assay: Select Screen kinase profiling; assay type: biochemical
PRKD2 (PKD2), sequence (Q9BZL6 whole entry): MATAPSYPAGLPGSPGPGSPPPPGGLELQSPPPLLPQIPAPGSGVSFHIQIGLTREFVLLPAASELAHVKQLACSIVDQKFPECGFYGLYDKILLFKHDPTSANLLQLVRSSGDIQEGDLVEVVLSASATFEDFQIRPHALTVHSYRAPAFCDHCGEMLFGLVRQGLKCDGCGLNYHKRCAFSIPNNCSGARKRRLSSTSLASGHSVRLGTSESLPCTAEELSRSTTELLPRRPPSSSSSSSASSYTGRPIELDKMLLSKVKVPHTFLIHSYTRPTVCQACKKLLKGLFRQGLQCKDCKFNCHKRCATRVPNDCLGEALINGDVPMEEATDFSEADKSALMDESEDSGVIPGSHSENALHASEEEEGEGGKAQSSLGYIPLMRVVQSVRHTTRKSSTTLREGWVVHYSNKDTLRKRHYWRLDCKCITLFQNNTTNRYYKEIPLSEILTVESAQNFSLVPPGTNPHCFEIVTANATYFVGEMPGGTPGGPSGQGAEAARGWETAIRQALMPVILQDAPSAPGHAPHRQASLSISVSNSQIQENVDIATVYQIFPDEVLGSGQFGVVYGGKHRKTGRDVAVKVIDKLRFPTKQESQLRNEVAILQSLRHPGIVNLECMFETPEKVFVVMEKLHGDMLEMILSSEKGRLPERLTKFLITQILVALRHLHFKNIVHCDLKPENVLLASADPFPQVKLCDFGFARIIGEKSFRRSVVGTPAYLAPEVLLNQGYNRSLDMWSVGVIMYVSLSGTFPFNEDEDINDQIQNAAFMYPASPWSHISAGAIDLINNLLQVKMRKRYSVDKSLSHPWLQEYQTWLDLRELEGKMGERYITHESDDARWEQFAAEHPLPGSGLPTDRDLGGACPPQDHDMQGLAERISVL
From the text: as §1

SRC = SRC (Homo sapiens, UniProt P12931); assay: Select Screen kinase profiling; assay type: biochemical
SRC, sequence (P12931 whole entry): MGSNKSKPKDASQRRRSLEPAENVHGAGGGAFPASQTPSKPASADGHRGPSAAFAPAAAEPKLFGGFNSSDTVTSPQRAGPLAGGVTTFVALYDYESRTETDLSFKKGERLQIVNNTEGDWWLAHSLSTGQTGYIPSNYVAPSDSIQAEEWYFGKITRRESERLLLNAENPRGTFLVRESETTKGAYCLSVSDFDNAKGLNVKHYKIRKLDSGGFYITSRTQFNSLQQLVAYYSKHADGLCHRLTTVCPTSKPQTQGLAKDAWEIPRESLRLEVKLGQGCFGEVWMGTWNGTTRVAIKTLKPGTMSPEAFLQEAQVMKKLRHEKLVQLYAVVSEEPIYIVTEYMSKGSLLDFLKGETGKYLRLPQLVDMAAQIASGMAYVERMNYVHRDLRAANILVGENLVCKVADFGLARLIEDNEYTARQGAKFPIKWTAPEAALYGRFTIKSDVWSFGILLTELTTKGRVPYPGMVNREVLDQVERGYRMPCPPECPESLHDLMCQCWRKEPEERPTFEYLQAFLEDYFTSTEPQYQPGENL
From the text: as §1

SRC N1 = SRC N1 (Homo sapiens, UniProt P12931); assay: Select Screen kinase profiling; assay type: biochemical
SRC N1, sequence (P12931 1-542 isoform P12931-2): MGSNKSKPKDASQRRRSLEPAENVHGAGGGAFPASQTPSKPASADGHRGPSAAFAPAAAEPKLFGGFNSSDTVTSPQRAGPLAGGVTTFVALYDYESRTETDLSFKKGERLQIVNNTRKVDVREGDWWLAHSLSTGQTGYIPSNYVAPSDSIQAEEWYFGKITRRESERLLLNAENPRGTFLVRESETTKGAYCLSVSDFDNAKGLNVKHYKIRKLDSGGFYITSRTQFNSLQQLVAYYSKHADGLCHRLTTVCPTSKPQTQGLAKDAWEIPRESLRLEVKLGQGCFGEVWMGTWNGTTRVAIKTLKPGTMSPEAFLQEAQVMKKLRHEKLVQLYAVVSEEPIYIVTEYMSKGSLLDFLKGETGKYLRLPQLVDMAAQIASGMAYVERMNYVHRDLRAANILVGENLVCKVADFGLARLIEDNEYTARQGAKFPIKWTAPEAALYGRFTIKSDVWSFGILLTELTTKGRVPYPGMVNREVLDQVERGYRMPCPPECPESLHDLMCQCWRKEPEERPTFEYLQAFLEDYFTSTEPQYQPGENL
From the text: as §1

[2] = test system: susceptible fungal strains; assay: Antifungal MIC95 comparison on susceptible fungal strains; assay type: cell-based; conditions: MIC95, Table 3 fungal strains
Protocol: Evaluation of antimicrobial activity in vitro. Compounds were tested against the following panel of bacteria and fungi purchased from the American Type Culture Collection (ATCC). Briefly, bacteria were grown to mid-log phase, diluted with fresh medium to an optical density at 600 nm (OD600) of 0.030-0.060 and then diluted again 1:10. This suspension (195 μL) was added to wells in a 96 well microtiter plate (Sarstedt) and 5 μL of compound dissolved in DMSO was added to give a final concentration of 100-0.1 μM at 2.5% DMSO by volume. A DMSO negative control and standard antibiotic positive controls were included in each plate. All compounds were tested in triplicate for each concentration. Plates were sealed with parafilm, placed in a Ziploc bag to prevent evaporation, and incubated at 30° C. (fungi) or 37° C. (bacteria) for 16-20 hours (48 hours for C. neoformans). The OD600 values for each well were determined with a plate reader (Biotek, EL800) and the data were standardized to the DMSO control wells after subtracting the background from blank medium. Initial single concentrations were tested at 100 μM and active compounds were further tested with at least nine concentrations for a full dose response. Dose response curves were generated using GraphPad Prism 5 software and used to determine the MIC95 concentrations (minimal concentration that inhibits 95% of growth). […]

[3] = test system: human lymphocytic CEM cells; assay: Cell proliferation assay, CEM; assay type: cell-based; conditions: CCRF-CEM, 72 h proliferation, Coulter counter
Protocol: (§2) Cell proliferation assays for several of the compounds were performed on L1210, a mouse lymphocytic leukemia cell line; CCRF-CEM [39] an acute lymphoblastic leukemia cell line; and HeLa, a human cancer cell line derived from a human cervical adenocarcinoma. Murine Leukemia L1210, human lymphocytic CEM and human cervix carcinoma HeLa cells were obtained from the American Type Culture Collection (ATCC) (Rockville, Md.). All assays were performed in 96-well microtiter plates. To each well were added (5-7.5)×10^4 tumor cells and a given amount of the test compound. The cells were allowed to proliferate for 48 h (murine leukemia L1210 cells) or 72 h (human lymphocytic CEM and human cervix carcinoma HeLa cells) at 37° C. in a humidified CO2-controlled atmosphere. At the end of the incubation period, the cells were counted in a Coulter counter. The IC50 (50% inhibitory concentration) was defined as the concentration of the compound that inhibited cell proliferation by 50%. […] Presence of C7 iodine on the 2,4-dichloro pyrrolo[3,2-d] (compound 20) increases the anticancer activity by a factor of 5 when compared to compound 19. […] This alludes to a) importance of C7-I towards activity against cancer cell lines for the 2,4-O-benzylated analogues (15 and 16).

[4] = test system: human cervix carcinoma HeLa cells; assay: Cell proliferation assay, HeLa; assay type: cell-based; conditions: 72 h proliferation, Coulter counter
Protocol: as §2

MDA-MB-231 cells = assay: Apoptosis (annexin V), MDA-MB-231; assay type: cell-based, human; conditions: MDA-MB-231, tested concentration
Protocol: Cell-cycle and apoptosis studies were conducted in MDA-MB-231 cells. Cell-cycle analysis of compound 19 at 15 μM concentration lead to arrest of 60% cells in G2/M stage. Similarly, at 1.75 μM concentration, compound 20 arrested 30% of cells in G2/M stage. […] To evaluate the possible mechanism for arrest of cell proliferation, cell-cycle distribution was measured using propidium iodide staining and flow cytometry. […] There are several possibilities that could account for this, including: (i) that cell lysis occurs rapidly following induction of apoptosis, preventing significant accumulation of annexin V-positive bodies, or (ii) that a distinct cell death pathway is triggered by compound 19.

SMILES: Clc1nc(Cl)c2sccc2n1 [Compound 1, 2,4-Dichlorothieno[3,2-d]pyrimidine]
- anti-cancer activity (tumor responsiveness) in vivo (melanoma tumor): comparable to the current standard of care, temozolomide
- body weight ([1]; 20 mg/kg IP, 5 days): maintaining their weight
- toxicity when administered systemically ([1]; daily IP doses 5 consecutive days, monitored 14 days): non-toxic
- inhibition at 5 µM (JAK2): < 40%
- inhibition at 5 µM (JAK2 JH1 JH2 V617F): < 40%
- inhibition at 5 µM (JAK2 JHI JH2): < 40%
- inhibition at 5 µM (JAK3): < 40%
- inhibition at 5 µM (MET (cMet)): < 40%
- inhibition at 5 µM (PIK3C2A): < 40%
- inhibition at 5 µM (PIK3CA/PIK3R1): < 40%
- inhibition at 5 µM (PIK3CG): < 40%
- inhibition at 5 µM (PRKCN (PKD3)): < 40%
- inhibition at 5 µM (PRKD1 (PKC mu)): < 40%
- inhibition at 5 µM (PRKD2 (PKD2)): < 40%
- inhibition at 5 µM (SRC): < 40%
- inhibition at 5 µM (SRC N1): < 40%

SMILES: Clc1nc(Cl)c2scc(Br)c2n1 [Compound 2, 7-Bromo-2,4-dichlorothieno[3,2-d]pyrimidine]
- times more potent than compound 1 [2]: 2-5

SMILES: Clc1nc(Cl)c2[nH]ccc2n1 [Compound 19, 2,4-Dichloropyrrolo[3,2-d]pyrimidine]
- IC50 [3]: 25 µM
- IC50 [4]: 19 µM
- annexin V-positive cells (MDA-MB-231 cells): modest (although statistically significant) increase
